Entries after “also recorded” stand apart in the source; their conditions may differ.

The test system of one assay is Drosophila melanogaster. The assay can be described thus: Cocaine-induced startle response and seizure activity in the Drosophila model. Type of assay: in vivo. As to the method: The percent time out of 45 seconds that each fly spent moving following a 42 cm drop was measured. Male flies exposed to cocaine spent less time moving than flies exposed to untreated food (p=2.13×10^−12). […] Error bars represent standard error.
Drosophila provides an advantageous model system for studies on cocaine consumption. […] In addition, flies develop sensitization to repeated intermittent exposure to cocaine. Startle behavior and the prevalence of seizure activity was measured in male and female flies. Measurements were taken following acute consumption of solid food, solid food supplemented with cocaine, or solid food supplemented with cocaine and ibrutinib. Male flies exposed to cocaine spent less time moving after being subjected to a mechanical startle (FIG. 3A). This is likely due to the occurrence of cocaine-induced seizures, which were scored as stationary periods.

In a further assay the test system is mice. The following applies: cited from earlier work.

Take `C=CC(=O)N1CCC[C@@H](n2nc(-c3ccc(Oc4ccccc4)cc3)c3c(N)ncnc32)C1` [ibrutinib, (R)-1-(3-(4-amino-3-(4-phenoxyphenyl)-1H-pyrazolo[3,4-d]pyrimidin-1-yl)piperidin-1-yl)prop-2-en-1-one]: in the assay on Drosophila melanogaster (female flies, cocaine and ibrutinib vs cocaine only, did not reach statistical significance), the “prevalence of cocaine-induced seizures during startle assay, female flies” value is given as “Fewer cocaine-induced seizures”. The “percent time spent moving after mechanical startle (startle response)” value in the assay with Drosophila melanogaster (male and female flies, food with cocaine and ibrutinib vs cocaine only, 45 seconds after 42 cm drop, FIG. 3A) is “increase in the percent of time spent moving; also recorded: spent more time moving than flies that only consumed cocaine”. Also, in the assay with Drosophila melanogaster (male flies, cocaine and ibrutinib vs cocaine only, FIG. 3B), the “prevalence of cocaine-induced seizures during startle assay, male flies” value is recorded as “significant decrease in the prevalence of seizures”.
Turning to `CC1=C(O)C(=O)[C@@H]2O[C@@H]2C1=O` [terreic acid], the binge drinking entry with mice is “reduced binge drinking in mice”.
